Patent US20230095836A1, “SUBSTITUTED 5,6-DIPHENYL-3(2H)-PYRIDAZINONES FOR USE AS FUNGICIDES” (FMC Corporation, priority 2020, published 2023)

What was measured:
Format in all cases: in vivo
Zymoseptoria tritici = experiment: Test A: test solution sprayed on wheat seedlings, inoculated next day with Zymoseptoria tritici (wheat leaf blotch); disease rating (100 = 100% disease control, 0 = no control; dash = not tested)
Protocol: The resulting test suspensions were then used in Tests A-F. The test solution was sprayed to the point of run-off on wheat seedlings. The following day the seedlings were inoculated with a spore suspension of Zymoseptoria tritici (the causal agent of wheat leaf blotch) and incubated in a saturated atmosphere at 24° C. for 48 h, and then moved to a growth chamber at 20° C. for 17 days, after which time disease ratings were made. A rating of 100 indicates 100% disease control and a rating of 0 indicates no disease control (relative to the controls). A dash (—) indicates the compound was not tested.

[1] = test system: Puccinia recondita f. sp. tritici; experiment: Test B: test solution sprayed on wheat seedlings, inoculated next day with Puccinia recondita f. sp. tritici (wheat leaf rust); disease rating (100 = 100% disease control, 0 = no control; dash = not tested)
From the text: The resulting test suspensions were then used in Tests A-F. The test solution was sprayed to the point of run-off on wheat seedlings. […] A rating of 100 indicates 100% disease control and a rating of 0 indicates no disease control (relative to the controls). A dash (—) indicates the compound was not tested.

Alternaria solani = experiment: Test F: test suspension sprayed on tomato seedlings, inoculated next day with Alternaria solani (tomato early blight); visual disease rating (100 = 100% disease control, 0 = no control; dash = not tested)
Protocol: (§1) The resulting test suspensions were then used in Tests A-F. The test suspension was sprayed to the point of run-off on tomato seedlings. The following day the seedlings were inoculated with a spore suspension of Alternaria solani (the causal agent of tomato early blight) and incubated in a saturated atmosphere at 27° C. for 48 h, and then moved to a growth chamber at 20° C. for 3 days, after which time visual disease ratings were made. A rating of 100 indicates 100% disease control and a rating of 0 indicates no disease control (relative to the controls). A dash (—) indicates the compound was not tested.

Botrytis cinerea = experiment: Test E: test suspension sprayed on tomato seedlings, inoculated next day with Botrytis cinerea (tomato Botrytis); visual disease rating (100 = 100% disease control, 0 = no control; dash = not tested)
Protocol: as §1, with “Botrytis cinerea” for “Alternaria solani”, “Botrytis)” for “early blight)”, “20°” for “27°”, “24°” for “20°”

Phakopsora pachyrhizi = experiment: Test D: test solution sprayed on soybean seedlings, inoculated next day with Phakopsora pachyrhizi (Asian soybean rust); visual disease rating (100 = 100% disease control, 0 = no control; dash = not tested)
From the text: General protocol for preparing test suspensions for Tests A-F: the test compounds were first dissolved in acetone in an amount equal to 3% of the final volume and then suspended at the desired concentration (in ppm) in acetone and purified water (50/50 mix by volume) containing 250 ppm of the surfactant PEG400 (polyhydric alcohol esters). The resulting test suspensions were then used in Tests A-F.
The test solution was sprayed to the point of run-off on soybean seedlings. The following day the seedlings were inoculated with a spore suspension of Phakopsora pachyrhizi (the causal agent of Asian soybean rust) and incubated in a saturated atmosphere at 22° C. for 24 h and then moved to a growth chamber at 22° C. for 8 days, after which time visual disease ratings were made.
A rating of 100 indicates 100% disease control and a rating of 0 indicates no disease control (relative to the controls). A dash (—) indicates the compound was not tested.

[2] = test system: Blumeria graminis f. sp. tritici; experiment: Test C: test suspension sprayed on wheat seedlings, inoculated next day with Blumeria graminis f. sp. tritici (wheat powdery mildew); visual disease rating (100 = 100% disease control, 0 = no control; dash = not tested)
Protocol: The resulting test suspensions were then used in Tests A-F. The test suspension was sprayed to the point of run-off on wheat seedlings. The following day the seedlings were inoculated with a spore dust of Blumeria graminis f. sp. tritici, (also known as Erysiphe graminis f. sp. tritici, the causal agent of wheat powdery mildew) and incubated in a growth chamber at 20° C. for 8 days, after which time visual disease ratings were made. A rating of 100 indicates 100% disease control and a rating of 0 indicates no disease control (relative to the controls). A dash (—) indicates the compound was not tested.

COc1ccc(Cl)c(-c2nn(C)c(=O)cc2-c2ccc(F)cc2Cl)c1 [Compound 117]
Test A disease control rating (Zymoseptoria tritici; 50 ppm): 99% | Test B disease control rating ([1]; 50 ppm): 98% | Test F disease control rating (Alternaria solani; 50 ppm): 0% | Test E disease control rating (Botrytis cinerea; 50 ppm): 99% | Test D disease control rating (Phakopsora pachyrhizi; 50 ppm): 47% | Test C disease control rating ([2]; 50 ppm): 93%

COc1cc(F)c(-c2c(-c3cc(OC)ccc3Cl)nn(C)c(=O)c2Cl)c(F)c1 [Compound 96]
Test A disease control rating (Zymoseptoria tritici; 50 ppm): 100% | Test B disease control rating ([1]; 50 ppm): 100% | Test F disease control rating (Alternaria solani; 50 ppm): 100% | Test E disease control rating (Botrytis cinerea; 50 ppm): 96% | Test D disease control rating (Phakopsora pachyrhizi; 50 ppm): 100% | Test C disease control rating ([2]; 50 ppm): 97%

Cn1nc(-c2ccc(F)cc2Cl)c(-c2ccc(F)cc2Cl)cc1=O [Compound 70]
Test A disease control rating (Zymoseptoria tritici; 50 ppm): 93% | Test B disease control rating ([1]; 50 ppm): 41% | Test F disease control rating (Alternaria solani; 50 ppm): 0% | Test E disease control rating (Botrytis cinerea; 50 ppm): 98% | Test D disease control rating (Phakopsora pachyrhizi; 50 ppm): 52% | Test C disease control rating ([2]; 50 ppm): 76%

Cn1nc(-c2cc(F)ccc2Cl)c(-c2ccc(F)cc2Cl)c(Cl)c1=O [Compound 82]
Test A disease control rating (Zymoseptoria tritici; 50 ppm): 100% | Test B disease control rating ([1]; 50 ppm): 100% | Test F disease control rating (Alternaria solani; 50 ppm): 100% | Test E disease control rating (Botrytis cinerea; 50 ppm): 64% | Test D disease control rating (Phakopsora pachyrhizi; 50 ppm): 100% | Test C disease control rating ([2]; 50 ppm): 100%

COc1c(-c2ccc(F)cc2Cl)c(-c2cc(F)ccc2Cl)nn(C)c1=O [Compound 120]
Test A disease control rating (Zymoseptoria tritici; 50 ppm): 100% | Test B disease control rating ([1]; 50 ppm): 100% | Test F disease control rating (Alternaria solani; 50 ppm): 0% | Test E disease control rating (Botrytis cinerea; 50 ppm): 33% | Test D disease control rating (Phakopsora pachyrhizi; 50 ppm): 77% | Test C disease control rating ([2]; 50 ppm): 99%

Cn1nc(-c2cccc(Cl)c2Cl)c(-c2ccc(F)cc2Cl)c(Cl)c1=O [Compound 104]
Test A disease control rating (Zymoseptoria tritici; 50 ppm): 100% | Test B disease control rating ([1]; 50 ppm): 100% | Test F disease control rating (Alternaria solani; 50 ppm): 99% | Test E disease control rating (Botrytis cinerea; 50 ppm): 97% | Test D disease control rating (Phakopsora pachyrhizi; 50 ppm): 100% | Test C disease control rating ([2]; 50 ppm): 100%

COc1ccc(F)c(-c2nn(C)c(=O)c(C)c2-c2ccc(F)cc2Cl)c1 [Compound 138]
Test A disease control rating (Zymoseptoria tritici; 50 ppm): 100% | Test B disease control rating ([1]; 50 ppm): 100% | Test F disease control rating (Alternaria solani; 50 ppm): 100% | Test E disease control rating (Botrytis cinerea; 50 ppm): 93% | Test D disease control rating (Phakopsora pachyrhizi; 50 ppm): 100% | Test C disease control rating ([2]; 50 ppm): 100%

COc1ccc(Cl)c(-c2nn(C)c(=O)c(Cl)c2-c2ccccc2Cl)c1 [Compound 184]
Test A disease control rating (Zymoseptoria tritici; 50 ppm): 100% | Test B disease control rating ([1]; 50 ppm): 100% | Test F disease control rating (Alternaria solani; 50 ppm): 99% | Test E disease control rating (Botrytis cinerea; 50 ppm): 96% | Test D disease control rating (Phakopsora pachyrhizi; 50 ppm): 99% | Test C disease control rating ([2]; 50 ppm): 96%

CCn1nc(-c2cc(OC)cc(OC)c2Br)c(-c2c(F)cccc2F)c(Br)c1=O [Compound 16]
Test A disease control rating (Zymoseptoria tritici; 50 ppm): 99% | Test B disease control rating ([1]; 50 ppm): 97% | Test F disease control rating (Alternaria solani; 50 ppm): 94% | Test E disease control rating (Botrytis cinerea; 50 ppm): 99% | Test D disease control rating (Phakopsora pachyrhizi; 50 ppm): 84% | Test C disease control rating ([2]; 50 ppm): 97%

CCn1nc(-c2cc(OC)cc(OC)c2)c(-c2c(F)cccc2F)cc1=O [Compound 32]
Test A disease control rating (Zymoseptoria tritici; 250 ppm): 0% | Test B disease control rating ([1]; 250 ppm): 9% | Test F disease control rating (Alternaria solani; 250 ppm): 0% | Test E disease control rating (Botrytis cinerea; 250 ppm): 80% | Test D disease control rating (Phakopsora pachyrhizi; 250 ppm): 0% | Test C disease control rating ([2]; 250 ppm): 29%

Cn1nc(-c2ccc(F)cc2Br)c(-c2ccc(F)cc2Cl)c(Cl)c1=O [Compound 156]
Test A disease control rating (Zymoseptoria tritici; 50 ppm): 99% | Test B disease control rating ([1]; 50 ppm): 100% | Test F disease control rating (Alternaria solani; 50 ppm): 87% | Test E disease control rating (Botrytis cinerea; 50 ppm): 100% | Test D disease control rating (Phakopsora pachyrhizi; 50 ppm): 96% | Test C disease control rating ([2]; 50 ppm): 99%

Cn1nc(-c2cccc(F)c2Cl)c(-c2ccc(F)cc2Cl)c(Cl)c1=O [Compound 145]
Test A disease control rating (Zymoseptoria tritici; 50 ppm): 100% | Test B disease control rating ([1]; 50 ppm): 100% | Test F disease control rating (Alternaria solani; 50 ppm): 100% | Test E disease control rating (Botrytis cinerea; 50 ppm): 100% | Test D disease control rating (Phakopsora pachyrhizi; 50 ppm): 99% | Test C disease control rating ([2]; 50 ppm): 100%

COc1cc(OC)c([N+](=O)[O-])c(-c2nn(C)c(=O)cc2-c2c(F)cccc2F)c1Cl [Compound 31]
Test A disease control rating (Zymoseptoria tritici; 50 ppm): 0% | Test B disease control rating ([1]; 50 ppm): 9% | Test F disease control rating (Alternaria solani; 50 ppm): 0% | Test E disease control rating (Botrytis cinerea; 50 ppm): 0% | Test D disease control rating (Phakopsora pachyrhizi; 50 ppm): 0% | Test C disease control rating ([2]; 50 ppm): 0%

CCn1nc(-c2cc(OC)cc(OC)c2Cl)c(-c2ccc(F)cc2Cl)cc1=O [Compound 202]
Test A disease control rating (Zymoseptoria tritici; 50 ppm): 99% | Test B disease control rating ([1]; 50 ppm): 68% | Test F disease control rating (Alternaria solani; 50 ppm): 0% | Test E disease control rating (Botrytis cinerea; 50 ppm): 99% | Test D disease control rating (Phakopsora pachyrhizi; 50 ppm): 44% | Test C disease control rating ([2]; 50 ppm): 72%

COc1c(-c2ccc(F)cc2Cl)c(-c2cccc(F)c2Br)nn(C)c1=O [Compound 110]
Test A disease control rating (Zymoseptoria tritici; 50 ppm): 100% | Test B disease control rating ([1]; 50 ppm): 100% | Test F disease control rating (Alternaria solani; 50 ppm): 99% | Test E disease control rating (Botrytis cinerea; 50 ppm): 96% | Test D disease control rating (Phakopsora pachyrhizi; 50 ppm): 79% | Test C disease control rating ([2]; 50 ppm): 100%

Cn1nc(-c2ccc(F)cc2Cl)c(-c2ccc(F)cc2Cl)c(CO)c1=O [Compound 172]
Test A disease control rating (Zymoseptoria tritici; 250 ppm): 79% | Test B disease control rating ([1]; 250 ppm): 92% | Test F disease control rating (Alternaria solani; 250 ppm): 0% | Test E disease control rating (Botrytis cinerea; 250 ppm): 83% | Test D disease control rating (Phakopsora pachyrhizi; 250 ppm): 78% | Test C disease control rating ([2]; 250 ppm): 87%

CCc1c(-c2ccc(F)cc2Cl)c(-c2cc(F)ccc2Cl)nn(C)c1=O [Compound 129]
Test A disease control rating (Zymoseptoria tritici; 50 ppm): 100% | Test B disease control rating ([1]; 50 ppm): 100% | Test F disease control rating (Alternaria solani; 50 ppm): 100% | Test E disease control rating (Botrytis cinerea; 50 ppm): 99% | Test D disease control rating (Phakopsora pachyrhizi; 50 ppm): 67% | Test C disease control rating ([2]; 50 ppm): 100%

COc1ccc(Cl)c(-c2nn(C)c(=O)c(Cl)c2-c2ccc(F)cc2F)c1 [Compound 185]
Test A disease control rating (Zymoseptoria tritici; 50 ppm): 100% | Test B disease control rating ([1]; 50 ppm): 100% | Test F disease control rating (Alternaria solani; 50 ppm): 100% | Test E disease control rating (Botrytis cinerea; 50 ppm): 96% | Test D disease control rating (Phakopsora pachyrhizi; 50 ppm): 100% | Test C disease control rating ([2]; 50 ppm): 99%
